Laboratory results from ChEMBL document CHEMBL1201862, “PubChem BioAssay data set” (2004).
The source made the active and inactive calls.

Columns and labels:
[1] = cells; format: functional
[2] = Luminescence Cell-Based Dose Retest to Confirm Inhibitors of Cancer Stem Cells. [Related pubchem assays (depositor defined):AID2717, AID2721]; format: functional; conditions: Homo sapiens
[3] = Luminescence Cell-Based Dose Confirmation HTS to Identify Inhibitors of Platelet Dense Granule Release. [Related pubchem assays: 1663 (Primary HTS), 1678 (Summary of Project)]; format: functional
[4] = molecular target: Luciferin 4-monooxygenase (Photinus pyralis, UniProt P08659); assay: firefly luciferase enzyme inhibitors, dose response, biochemical, luminescence (AID 1891)
[5] = molecular target: Cytochrome P450 2C9 (Homo sapiens, UniProt P11712)
[6] = molecular target: T1, Cytochrome P450 1A2 (Homo sapiens, UniProt P05177);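 note: PubChem cytochrome P450 panel assay, CYP1A2 panel member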
T1 sequence (P05177 whole entry): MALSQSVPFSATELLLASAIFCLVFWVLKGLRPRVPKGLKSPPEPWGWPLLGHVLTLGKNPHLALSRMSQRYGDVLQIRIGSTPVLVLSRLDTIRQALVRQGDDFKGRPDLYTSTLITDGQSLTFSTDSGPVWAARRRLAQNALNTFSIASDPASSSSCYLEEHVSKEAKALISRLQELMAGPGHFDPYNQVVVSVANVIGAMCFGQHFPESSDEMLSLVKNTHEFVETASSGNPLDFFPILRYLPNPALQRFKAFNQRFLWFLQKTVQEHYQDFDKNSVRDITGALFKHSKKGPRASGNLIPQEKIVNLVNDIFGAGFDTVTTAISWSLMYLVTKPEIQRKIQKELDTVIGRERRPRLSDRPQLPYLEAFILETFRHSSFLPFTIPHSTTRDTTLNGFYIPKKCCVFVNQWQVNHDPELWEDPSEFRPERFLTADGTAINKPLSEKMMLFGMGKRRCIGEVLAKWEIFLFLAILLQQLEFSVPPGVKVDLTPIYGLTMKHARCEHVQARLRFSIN

[7] = molecular target: T2, RNA-binding protein pos-1 (Caenorhabditis elegans, UniProt G5EF15); assay: inhibitors of POS-1/mex-3 RNA binding, dose response, biochemical, fluorescence polarization (AID 1964);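 note: purified POS-1 fused to maltose binding protein made in E. coli; potency of compounds blocking POS-1 binding to fluorescent RNA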
T2 sequence (G5EF15 whole entry): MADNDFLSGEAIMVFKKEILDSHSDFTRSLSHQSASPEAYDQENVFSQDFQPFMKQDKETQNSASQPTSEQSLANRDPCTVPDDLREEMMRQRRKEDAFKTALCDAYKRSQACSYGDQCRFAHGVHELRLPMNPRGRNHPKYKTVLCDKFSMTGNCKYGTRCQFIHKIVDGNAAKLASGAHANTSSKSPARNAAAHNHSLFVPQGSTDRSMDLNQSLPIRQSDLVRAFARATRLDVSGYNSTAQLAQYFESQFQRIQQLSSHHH

[8] = molecular target: T3, Zinc finger protein mex-5 (Caenorhabditis elegans, UniProt Q9XUB2); assay: MEX-5/TCR-2 RNA interaction inhibitors, dose response, biochemical, C. elegans, fluorescence polarization (AID 1960)
T3 sequence (Q9XUB2 whole entry): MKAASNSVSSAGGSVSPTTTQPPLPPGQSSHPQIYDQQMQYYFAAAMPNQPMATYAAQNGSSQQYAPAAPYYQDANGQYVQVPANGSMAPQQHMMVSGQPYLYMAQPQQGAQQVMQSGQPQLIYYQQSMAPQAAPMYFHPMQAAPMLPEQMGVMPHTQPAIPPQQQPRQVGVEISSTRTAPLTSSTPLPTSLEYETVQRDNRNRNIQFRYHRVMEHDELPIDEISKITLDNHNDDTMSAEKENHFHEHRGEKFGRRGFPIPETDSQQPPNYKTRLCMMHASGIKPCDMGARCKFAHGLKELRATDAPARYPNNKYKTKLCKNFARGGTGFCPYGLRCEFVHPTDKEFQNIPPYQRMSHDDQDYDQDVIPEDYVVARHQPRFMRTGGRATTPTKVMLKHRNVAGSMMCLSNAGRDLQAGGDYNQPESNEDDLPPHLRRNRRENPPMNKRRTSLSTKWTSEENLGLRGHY

[9] = molecular target: Cytochrome P450 2C19 (Homo sapiens, UniProt P33261); assay: Cytochrome panel assay with activity outcomes. Panel member name: p450-cyp2c19 Compounds with AC50 equal or less than 10 uM are considered active; format: functional
[10] = system: Streptococcus sp. 'group A'; assay: growth inhibition of control SK(-) GAS strain, dose response, counter-screen for streptokinase expression inhibitor project, luminescence, kanamycin, BacTiterGlo, confirmation (AID 1900); format: functional, organism-based
[11] = inhibitors of SNCA 5'UTR-driven reporter translation, confirmation, H4 neuroglioma cells, luminescence (AID 1988); format: functional, cell-based
[12] = inhibitors of firefly luciferase expression or activity, dose response, H4 neuroglioma cells, luminescence (AID 1990); format: functional, cell-based
[13] = system: Streptococcus; assay: Group A Streptococcus viability loss, dose response, counter-screen for streptokinase expression inhibitor project, luminescence, BacTiterGlo (AID 1915); format: functional, organism-based;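 note: potency for reduction of bacterial viability or growth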
[14] = Luminescence Cell-Based Dose Response HTS to Identify Inhibitors of 5'UTR Stem-Loop Driven Prion Protein mRNA Translation in H4 Neuroglioblastoma Cells. [Related pubchem assays: 1827 (Project Summary), 1813 (Primary HTS)]; format: functional
[15] = molecular target: T4, Streptokinase A (Streptococcus pyogenes serotype M1, UniProt P10520); assay: S. pyogenes streptokinase expression inhibitors, potency, dose response, plasminogen activation absorbance, OD405 (AID 1914); format: functional, Streptococcus pyogenes M1 GAS;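 note: secreted streptokinase activity via plasminogen activation per viability signal from cell pellet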
T4 sequence (P10520 whole entry): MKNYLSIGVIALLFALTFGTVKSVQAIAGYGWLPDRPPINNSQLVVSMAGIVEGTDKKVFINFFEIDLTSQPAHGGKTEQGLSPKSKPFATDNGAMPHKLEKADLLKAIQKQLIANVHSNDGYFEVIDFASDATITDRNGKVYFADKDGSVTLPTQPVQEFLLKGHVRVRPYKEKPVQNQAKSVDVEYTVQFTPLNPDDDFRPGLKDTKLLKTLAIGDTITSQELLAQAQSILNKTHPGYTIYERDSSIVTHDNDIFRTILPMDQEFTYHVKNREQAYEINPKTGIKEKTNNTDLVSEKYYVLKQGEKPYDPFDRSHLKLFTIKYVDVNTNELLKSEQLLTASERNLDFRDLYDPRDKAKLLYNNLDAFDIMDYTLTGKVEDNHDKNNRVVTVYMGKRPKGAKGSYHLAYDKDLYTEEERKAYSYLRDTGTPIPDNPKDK

[16] = molecular target: Paired box protein Pax-8 (Homo sapiens, UniProt Q06710); assay: inhibitors of PAX8-driven TPO luciferase reporter, dose response, RMG-I cells, cherry-pick (AID 687027); format: functional, cell-based;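 note: luciferase reporter driven by Pax8 target thyroperoxidase promoter measured by SteadyGlo luminescence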
[17] = Shn3 3'UTR reporter inhibitors, dose response, cell-based, Clone20 osteoblasts, firefly luciferase, cherry-picked (AID 624132); format: functional;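 note: firefly luciferase luminescence from reporter carrying the Shn3 3'UTR in osteoblasts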
[18] = control 3'UTR Renilla luciferase suppression, dose response, counter-screen for Shn3 inhibitor project, cell-based, Clone20-Shn3RL, cherry-picked (AID 624133); format: functional
[19] = Luminescence Cell-Based Dose Confirmation HTS to Identify Activators of 5'UTR Stem-Loop Driven Alpha-Synuclein mRNA Translation in H4 Neuroglioblastoma Cells. [Related pubchem assays: 1829 (Project Summary), 1814 (Primary HTS)]; format: functional
[20] = system: H4; assay: Luminescence Cell-Based Dose Response HTS to Identify Activators of 5'UTR Stem-Loop Driven Prion Protein mRNA Translation in H4 Neuroglioblastoma Cells. [Related pubchem assays: 1829 (Project Summary), 1814 (Primary HTS)]; format: functional; conditions: Homo sapiens
[21] = Luminescence Cell-Based Dose Response HTS to Identify Activators of Luciferase Translation or Activity in H4 […] Cells. [Related pubchem assays: 1829 (Project Summary), 1814 (Primary HTS)]; format: functional
[22] = molecular target: Cytochrome P450 2D6 (Homo sapiens, UniProt P10635);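 note: CYP2D6 member of a cytochrome P450 panel assay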
[23] = molecular target: Cytochrome P450 3A4 (Homo sapiens, UniProt P08684);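 note: CYP3A4 tested as one member of a cytochrome P450 panel screen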
Cytochrome P450 3A4, sequence (P08684 whole entry): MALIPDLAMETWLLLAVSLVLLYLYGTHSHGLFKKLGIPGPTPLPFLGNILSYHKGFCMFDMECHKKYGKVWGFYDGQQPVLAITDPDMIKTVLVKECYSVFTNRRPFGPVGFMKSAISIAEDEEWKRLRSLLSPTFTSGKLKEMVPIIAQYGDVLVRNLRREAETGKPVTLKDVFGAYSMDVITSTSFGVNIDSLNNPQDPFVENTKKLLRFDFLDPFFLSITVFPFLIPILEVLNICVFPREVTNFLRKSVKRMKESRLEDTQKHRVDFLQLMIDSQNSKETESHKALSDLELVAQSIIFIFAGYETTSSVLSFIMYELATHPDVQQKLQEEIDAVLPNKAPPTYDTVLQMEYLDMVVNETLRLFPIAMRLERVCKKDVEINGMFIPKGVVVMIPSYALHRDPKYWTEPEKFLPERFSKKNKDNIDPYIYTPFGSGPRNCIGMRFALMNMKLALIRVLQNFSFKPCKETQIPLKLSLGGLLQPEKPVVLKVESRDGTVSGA

Cytochrome P450 2C9, sequence (P11712 whole entry): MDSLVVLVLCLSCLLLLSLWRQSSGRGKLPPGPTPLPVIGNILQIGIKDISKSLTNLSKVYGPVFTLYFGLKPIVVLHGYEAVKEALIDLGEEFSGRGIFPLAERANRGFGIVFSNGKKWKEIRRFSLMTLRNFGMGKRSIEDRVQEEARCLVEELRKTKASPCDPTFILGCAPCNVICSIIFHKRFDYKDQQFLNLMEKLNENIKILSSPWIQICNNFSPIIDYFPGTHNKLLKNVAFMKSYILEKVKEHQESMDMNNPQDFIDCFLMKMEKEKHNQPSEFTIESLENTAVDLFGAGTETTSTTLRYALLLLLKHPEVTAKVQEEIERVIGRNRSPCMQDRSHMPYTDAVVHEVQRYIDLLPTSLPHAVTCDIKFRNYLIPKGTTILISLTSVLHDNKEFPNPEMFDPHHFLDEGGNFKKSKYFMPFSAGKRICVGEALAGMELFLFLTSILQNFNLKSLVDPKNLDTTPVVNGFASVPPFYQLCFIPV
Luciferin 4-monooxygenase, sequence (P08659 whole entry): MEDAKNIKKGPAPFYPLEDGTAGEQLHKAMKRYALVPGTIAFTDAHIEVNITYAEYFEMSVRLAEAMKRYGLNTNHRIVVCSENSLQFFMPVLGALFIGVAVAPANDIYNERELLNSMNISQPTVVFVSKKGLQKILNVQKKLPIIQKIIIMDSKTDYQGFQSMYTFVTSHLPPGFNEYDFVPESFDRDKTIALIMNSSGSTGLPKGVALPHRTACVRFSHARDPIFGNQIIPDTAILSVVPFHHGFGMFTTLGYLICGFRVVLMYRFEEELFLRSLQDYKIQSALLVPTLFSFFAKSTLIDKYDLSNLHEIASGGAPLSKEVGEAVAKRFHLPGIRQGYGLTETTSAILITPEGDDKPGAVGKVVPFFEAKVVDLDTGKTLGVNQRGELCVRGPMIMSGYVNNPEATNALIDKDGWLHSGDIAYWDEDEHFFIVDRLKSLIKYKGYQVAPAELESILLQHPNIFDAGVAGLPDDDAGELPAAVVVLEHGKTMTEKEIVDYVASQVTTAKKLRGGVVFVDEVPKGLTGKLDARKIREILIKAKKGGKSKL
Cytochrome P450 2C19, sequence (P33261 whole entry): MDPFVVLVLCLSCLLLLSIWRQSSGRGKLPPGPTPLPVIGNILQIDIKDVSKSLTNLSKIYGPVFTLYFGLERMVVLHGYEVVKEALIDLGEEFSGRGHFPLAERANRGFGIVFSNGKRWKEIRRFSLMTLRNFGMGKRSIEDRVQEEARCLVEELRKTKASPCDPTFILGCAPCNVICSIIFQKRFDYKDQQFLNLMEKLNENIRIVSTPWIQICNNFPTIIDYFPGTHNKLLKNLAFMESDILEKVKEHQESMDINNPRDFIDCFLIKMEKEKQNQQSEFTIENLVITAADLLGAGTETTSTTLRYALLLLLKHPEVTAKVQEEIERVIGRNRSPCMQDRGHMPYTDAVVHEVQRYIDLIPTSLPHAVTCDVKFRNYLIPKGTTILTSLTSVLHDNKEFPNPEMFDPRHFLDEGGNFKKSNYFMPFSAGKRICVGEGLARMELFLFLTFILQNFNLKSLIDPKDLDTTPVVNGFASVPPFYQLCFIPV
Paired box protein Pax-8, sequence (Q06710 whole entry): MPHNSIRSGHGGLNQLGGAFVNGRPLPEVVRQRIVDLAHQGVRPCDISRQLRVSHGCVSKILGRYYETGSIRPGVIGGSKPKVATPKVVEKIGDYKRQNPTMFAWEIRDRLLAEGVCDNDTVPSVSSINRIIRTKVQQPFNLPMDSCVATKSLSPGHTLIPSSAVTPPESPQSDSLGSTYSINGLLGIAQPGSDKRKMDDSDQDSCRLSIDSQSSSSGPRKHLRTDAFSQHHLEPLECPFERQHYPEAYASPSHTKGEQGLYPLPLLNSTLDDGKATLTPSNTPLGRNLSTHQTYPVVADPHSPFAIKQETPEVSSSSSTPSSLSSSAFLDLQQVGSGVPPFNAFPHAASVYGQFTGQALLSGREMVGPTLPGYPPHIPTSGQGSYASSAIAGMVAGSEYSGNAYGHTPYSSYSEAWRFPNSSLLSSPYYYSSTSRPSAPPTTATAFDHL
Cytochrome P450 2D6, sequence (P10635 whole entry): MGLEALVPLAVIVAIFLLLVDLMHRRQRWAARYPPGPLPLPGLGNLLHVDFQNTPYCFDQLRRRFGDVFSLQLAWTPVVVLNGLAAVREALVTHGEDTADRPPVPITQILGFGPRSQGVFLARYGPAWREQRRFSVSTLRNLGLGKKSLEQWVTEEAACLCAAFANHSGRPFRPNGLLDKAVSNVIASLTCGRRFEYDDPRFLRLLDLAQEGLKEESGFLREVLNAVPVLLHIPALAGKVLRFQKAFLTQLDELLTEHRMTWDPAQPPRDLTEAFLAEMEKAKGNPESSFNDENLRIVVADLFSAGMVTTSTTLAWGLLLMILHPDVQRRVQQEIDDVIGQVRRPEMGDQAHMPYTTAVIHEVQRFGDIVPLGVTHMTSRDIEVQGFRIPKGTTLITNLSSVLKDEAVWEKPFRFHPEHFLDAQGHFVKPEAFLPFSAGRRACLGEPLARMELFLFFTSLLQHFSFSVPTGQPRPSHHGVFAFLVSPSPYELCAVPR

## CC(C)c1ccc(/C=N/NC(=O)c2ccccn2)cc1
[1]
  IC50: 6.08 µM (active)
[2]
  AC50: 19.5 µM (active)

## N=C(NOC(=O)c1ccccc1Cl)c1cccnc1
[3]
  EC50: > 112 µM (not active)
[4]
  EC50: 23.6 µM (active)

## CCc1ccc2c(c1)cc(CN(C(S)=Nc1cccc(C)c1)C1CC1)c1nnnn12
[5]
  AC50: 2.82 µM (inconclusive)
[6]
  AC50: 12.6 µM (inconclusive)

## COc1ccc(S(=O)(=O)N2CCN(Cc3ccc4c(c3)OCO4)CC2)c2ccccc12
[3]
  EC50: > 112 µM (not active)
[4]
  EC50: > 112 µM (not active)

## CCOC(=O)c1cc(-c2ccccc2)sc1NC(=S)Nc1cc(C)ccn1
[5]
  AC50: 5.62 µM (inconclusive)
[6]
  AC50: 3.55 µM (inconclusive)
[7]
  EC50: 11.1 µM (inconclusive)
[8]
  EC50: 0.77 µM (inconclusive)
[9]; read-out: AC50
  AC50: 6.31 µM (inconclusive)

## O=C(c1cnc2ccc3ccccc3c2c1)c1cc(F)ccc1O
[2]
  AC50: 0.562 µM (active)

## COc1ccc2cc3c(N)nn(C(=O)C4CCC(C(C)(C)C)CC4)c3nc2c1 (configuration not stated)
[10]
  EC50: 2.15 µM (active)
[11]
  EC50: 12.3 µM (active)
[12]
  EC50: 51.1 µM (active)
[13]
  EC50: 4.71 µM (active)
[14]
  EC50: 9.82 µM (active)
[15]
  EC50: > 150 µM (not active)

## O=C(N[C@@H](c1ccccc1)[C@@H]1C[C@H]1C(=O)NCc1ccccn1)OCc1ccccc1
[5]
  AC50: 20 µM (inconclusive)
[6]
  AC50: 10 µM (inconclusive)

## COC(=O)c1ccc(/C=C/c2c(-c3ccc(OC)cc3)oc3ccccc23)cc1
[2]
  AC50: 2.47 µM (active)

## Cc1c(Cc2ccccc2)sc(NC(=O)/C=C/c2cccc3ccccc23)c1C(N)=O
[11]
  EC50: 5.84 µM (active)
[12]
  EC50: 13.3 µM (inconclusive)
[14]
  EC50: 10.9 µM (active)

## C[C@@H]1CN([C@@H](C)CO)C(=O)Cc2cc(NC(=O)c3ccncc3)ccc2O[C@@H]1CN(C)Cc1ccc(-c2ccccc2)cc1
[16]
  AC50: 22.3 µM (active)

## CC(c1ccccc1)N1C(=O)/C(=C/c2ccncc2)SC1=S (configuration not stated)
[2]
  AC50: 19 µM (active)

## CCc1ccc(Oc2coc3cc(OCC(=O)Nc4cc(C)ccc4C)ccc3c2=O)cc1
[11]
  EC50: 9.97 µM (active)
[12]
  EC50: 18.5 µM (active)
[14]
  EC50: 14.8 µM (active)

## COC(=O)[C@@]1(Cc2ccc(F)cc2)[C@H]2c3cc(C(=O)N4CCCC4)n(Cc4cccc5ccccc45)c3C[C@H]2CN1C(=O)c1ccccc1
[6]
  AC50: 15.8 µM (inconclusive)
[9]; read-out: AC50
  AC50: 7.94 µM (inconclusive)

## COc1ccc(C)cc1N(C(=O)c1ccccc1F)c1nc2ccccc2s1
[11]
  EC50: > 120 µM (not active)
[12]
  EC50: > 120 µM (not active)
[14]
  EC50: > 120 µM (not active)

## Cc1cccc(NC(=O)CCCNC(=O)c2ccc(Cl)cc2)n1
[3]
  EC50: 16 µM (active)
[4]
  EC50: > 112 µM (not active)

## Cc1ccnc(N/C=C(/NC(=O)c2ccccc2)C(=O)N/N=C\c2ccc(F)cc2)n1
[17]
  AC50: > 70 µM (inactive)
[18]
  AC50: 26.8 µM (active)

## Cc1ccccc1NC(=O)c1cc(S(=O)(=O)N2CCOCC2)cn1C
[3]
  EC50: > 112 µM (not active)
[4]
  EC50: > 112 µM (not active)

## O=C(CCc1ccccc1)NCc1cccnc1
[5]
  AC50: 1 µM (inconclusive)
[6]
  AC50: 31.6 µM (inconclusive)

## COc1ccc(C(=O)/C=C2/C(=O)Nc3ccccc32)cc1
[19]
  EC50: 18.1 µM (active)
[20]
  EC50: 17.1 µM (active)
[2]
  AC50: 4.39 µM (active)
[21]
  EC50: > 120 µM (not active)

## CCC(NC(=O)C1(C)CC1(Br)Br)c1ccc(C)cc1 (configuration not stated)
[6]
  AC50: 20 µM (inconclusive)
[22]
  AC50: 7.94 µM (inconclusive)

## c1ccc2[nH]c(-c3cscn3)nc2c1 [THIABENDAZOLE]
[6]
  AC50: 0.126 µM (active)
[19]
  EC50: 14.3 µM (active)
[20]
  EC50: 23.7 µM (active)
[9]; read-out: AC50
  AC50: 7.94 µM (inconclusive)
[22]
  AC50: 10 µM (inconclusive)
[21]
  EC50: 18.7 µM (active)

## O=C(Nc1ccccc1)OC[C@H](CN1CCCCC1)OC(=O)Nc1ccccc1
[6]
  AC50: 12.6 µM (inconclusive)
[9]; read-out: AC50
  AC50: 5.01 µM (inconclusive)

## COc1cccc(OCCCOc2ccccc2C(C)C)c1
[23]
  AC50: 0.0178 µM (inconclusive)
[5]
  AC50: 25.1 µM (inconclusive)
[6]
  AC50: 22.4 µM (inconclusive)

## C[C@@H]1CCCCO[C@H](CN(C)Cc2ccc(C(F)(F)F)cc2)[C@H](C)CN([C@@H](C)CO)C(=O)c2cc(NC(=O)Nc3ccc(F)cc3)ccc2O1
[16]
  AC50: 8.21 µM (active)

## CC(=O)Nc1ccc(S(=O)(=O)N2CCC(C(=O)NCc3ccco3)CC2)cc1
[3]
  EC50: > 112 µM (not active)
[4]
  EC50: > 112 µM (not active)

## OC(CSc1ccccc1Cl)CN1CCN(c2ccc(F)cc2)CC1 (configuration not stated)
[11]
  EC50: > 120 µM (not active)
[12]
  EC50: > 120 µM (not active)
[14]
  EC50: > 120 µM (not active)

## COc1cccc(/N=c2\oc3c(C)ncc(CO)c3cc2C(=O)Nc2ccccc2OC)c1
[11]
  EC50: > 120 µM (not active)
[12]
  EC50: > 120 µM (not active)
[14]
  EC50: > 120 µM (not active)

## COc1ccc(C(=O)Nc2ccccc2C(=O)Nc2cccnc2)cc1
[3]
  EC50: 6.59 µM (active)
[4]
  EC50: 1.61 µM (active)

## Cc1nc2ccccc2nc(C)c1=NO
[6]
  AC50: 17.8 µM (inconclusive)
[9]
  AC50: inconclusive

## C=CCNc1nc(N)c([N+](=O)[O-])c(N2CCCCCC2)n1
[11]
  EC50: 26.7 µM (active)
[12]
  EC50: > 120 µM (not active)
[14]
  EC50: > 120 µM (not active)
